Measured values from patent publication US7041701B2, “Triterpenoid derivatives” (Univerzita Palackeho V Olomouci, priority 2000, dated 2006).
Like-named read-outs stand apart in the source and are kept apart here.

Columns and labels:
[1] = test system: MEL-3 human melanoma; assay: MTT cytotoxicity assay, MEL-3; format: cell-based; details: Homo sapiens, 72 hours, read-out: TCS50
Excerpt: (§1) One of the parameters used as the basis for colorimetric assays is the metabolic activity of viable cells. For example, a microtiter assay which uses the tetrazolium salt MTT is now widely used to quantitate cell proliferation and cytotoxicity [Hajdúch M, Mihál V, Minarík J, Fáber E, Safárová M, Weigl E, Antálek P.: Cytotechnology, 1996, 19, 243–245]. For instance, this assay is used in drug screening programs and in chemosensitivity testing. Because tetrazolium salts are cleaved only by metabolically active cells, these assays exclusively detect viable cells. In the case of the MTT assay, yellow soluble tetrazolium salt is reduced to a coloured water-insoluble formazan salt. After it is solubilized, the formazan formed can easily and rapidly be quantified in a conventional ELISA plate reader at 570 nm (maximum absorbancy). The quantity of reduced formazan corresponds to the number of vital cells in the culture. […]
(§2) The cell suspensions that were prepared and diluted according to the particular cell type and the expected target cell density (2,500–30,000 cells per well based on cell growth characteristics) were added by pipette (80 μl) into 96/well microtiter plates. […] Usually, test compounds were evaluated at six 4-fold dilutions. […] The tumour cell survival (TCS) was calculated using the following equitation: TCS=(ODdrug exposed well/mean ODcontrol wells)×100%. […]

[2] = test system: K562-GEM human promyelocytic leukemia, gemcitabin resistant; assay: MTT cytotoxicity assay, K562-GEM; format: cell-based; details: Homo sapiens, 72 hours, read-out: TCS50
Excerpt: as §1, §2

[3] = test system: K562-FLUD human promyelocytic leukemia, fludarabin resistant; assay: MTT cytotoxicity assay, K562-FLUD; format: cell-based; details: Homo sapiens, 72 hours, read-out: TCS50
Excerpt: as §1, §2

[4] = test system: U2OS human osteosarcoma, p53+/−, Rb+/−; assay: MTT cytotoxicity assay, U2OS; format: cell-based; details: Homo sapiens, 72 hours, read-out: TCS50
Excerpt: as §1, §2

[5] = test system: HepG2 human hepatocellular carcinoma; assay: MTT cytotoxicity assay, HepG2; format: cell-based; details: Homo sapiens, 72 hours, read-out: TCS50
Excerpt: as §1, §2

[6] = test system: BT549 human breast cancer, p53mut/mut; assay: MTT cytotoxicity assay, BT549; format: cell-based; details: Homo sapiens, BT-549, 72 hours, read-out: TCS50
Excerpt: as §1, §2

[7] = test system: K562-ARA-C human promyelocytic leukemia, cytarabin resistant; assay: MTT cytotoxicity assay, K562-ARA-C; format: cell-based; details: Homo sapiens, 72 hours, read-out: TCS50
Excerpt: as §1, §2

[8] = test system: CEM-DNR 1/C2 human T-lymphoblastic leukemia, daunorubicin resistant; assay: MTT cytotoxicity assay, CEM-DNR 1/C2; format: cell-based; details: Homo sapiens, 72 hours, read-out: TCS50
Excerpt: as §1, §2

[9] = test system: Caco-2 human colon cancer; assay: MTT cytotoxicity assay, Caco-2; format: cell-based; details: Homo sapiens, 72 hours, read-out: TCS50
Excerpt: as §1, §2

[10] = test system: CEM-VCR 3/D5 human T-lymphoblastic leukemia, vincristin resistant; assay: MTT cytotoxicity assay, CEM-VCR 3/D5; format: cell-based; details: Homo sapiens, 72 hours, read-out: TCS50
Excerpt: as §1, §2

[11] = test system: HT-29 human colon cancer; assay: MTT cytotoxicity assay, HT-29; format: cell-based; details: Homo sapiens, 72 hours, read-out: TCS50
Excerpt: as §1, §2

[12] = test system: CEM human T-lymphoblastic leukemia; assay: MTT cytotoxicity screening assay, CEM; format: cell-based
Excerpt: One of the parameters used as the basis for colorimetric assays is the metabolic activity of viable cells. For example, a microtiter assay which uses the tetrazolium salt MTT is now widely used to quantitate cell proliferation and cytotoxicity [Hajdúch M, Mihál V, Minarík J, Fáber E, Safárová M, Weigl E, Antálek P.: Cytotechnology, 1996, 19, 243–245]. For instance, this assay is used in drug screening programs and in chemosensitivity testing. Because tetrazolium salts are cleaved only by metabolically active cells, these assays exclusively detect viable cells. In the case of the MTT assay, yellow soluble tetrazolium salt is reduced to a coloured water-insoluble formazan salt. After it is solubilized, the formazan formed can easily and rapidly be quantified in a conventional ELISA plate reader at 570 nm (maximum absorbancy). The quantity of reduced formazan corresponds to the number of vital cells in the culture.
Human T-lymphoblastic leukaemia cell line CEM was used for routine screening of these compounds. […] The cells were maintained in Nunc/Corning 80 cm^2 plastic tissue culture flasks and cultured in cell culture medium (DMEM with 5 g/l glucose, 2 mM glutamine, 100 U/ml penicillin, 100 μg/ml streptomycin, 10% foetal calf serum and sodium bicarbonate). Individual compounds were dissolved in 10% diiethylsulfoxide/saline, pH 8.0.
The cell suspensions that were prepared and diluted according to the particular cell type and the expected target cell density (2,500–30,000 cells per well based on cell growth characteristics) were added by pipette (80 μl) into 96/well microtiter plates. Inoculates were allowed a pre-incubation period of 24 hours at 37° C. and 5% CO2 for stabilisation. Four-fold dilutions of the intended test concentration were added at time zero in 20 μl aliquots to the microtiter plate wells. Usually, test compounds were evaluated at six 4-fold dilutions. In routine testing, the highest well concentration was 250 μM, but it may differ, depending on the agent. All drug concentrations were examined in duplicate. Incubations of cells with the test compounds lasted for 72 hours at 37° C., in 5% CO2 atmosphere and 100% humidity. At the end of the incubation period, the cells were assayed by using the MTT assay. […] After this incubation period, formazan was solubilized by the addition of 100 μl/well of 10% SDS in water (pH=5.5) followed by further incubation at 37° C. overnight The optical density (OD) was measured at 540 nm with the Labsystem iEMS Reader MF(UK). The tumour cell survival (TCS) was calculated using the following equitation: TCS=(ODdrug exposed well/mean ODcontrol wells)×100%. The TCS50 value, the drug concentration lethal to 50% of the tumour cells, was calculated from the obtained dose response curves. […]

[13] = test system: CEM-VCR 1/F3 human T-lymphoblastic leukemia, vincristin resistant; assay: MTT cytotoxicity assay, CEM-VCR 1/F3; format: cell-based; details: Homo sapiens, 72 hours, read-out: TCS50
Excerpt: as §1, §2

[14] = test system: NIH3T3 mouse immortalised fibroblasts; assay: MTT cytotoxicity assay, NIH3T3; format: cell-based; details: Mus musculus, 72 hours, read-out: TCS50
Excerpt: as §1, §2

[15] = test system: human normal lymphocytes; assay: MTT cytotoxicity assay, normal lymphocytes; format: cell-based; details: Lymphocyte, 72 hours, read-out: TCS50
Excerpt: as §1, §2

[16] = test system: Saos2 human, p53−/−, Rb−/−; assay: MTT cytotoxicity assay, Saos2; format: cell-based; details: Homo sapiens, SAOS-2, 72 hours, read-out: TCS50
Excerpt: as §1, §2

[17] = test system: CEM-VCR bulk human T-lymphoblastic leukemia, vincristin resistant; assay: MTT cytotoxicity assay, CEM-VCR bulk; format: cell-based; details: Homo sapiens, 72 hours, read-out: TCS50
Excerpt: as §1, §2

[18] = test system: CEM-DNR bulk human T-lymphoblastic leukemia, daunorubicin resistant; assay: MTT cytotoxicity assay, CEM-DNR bulk; format: cell-based; details: Homo sapiens, 72 hours, read-out: TCS50
Excerpt: as §1, §2

[19] = test system: SW620 human colon cancer, metastasis; assay: MTT cytotoxicity assay, SW620; format: cell-based; details: Homo sapiens, SW-620, 72 hours, read-out: TCS50
Excerpt: as §1, §2

[20] = test system: K562 human promyelocytic leukemia; assay: MTT cytotoxicity assay, K562; format: cell-based; details: Homo sapiens, 72 hours, read-out: TCS50
Excerpt: as §1, §2

[21] = test system: B16 mouse melanoma; assay: MTT cytotoxicity assay, B16; format: cell-based; details: Mus musculus, 72 hours, read-out: TCS50
Excerpt: as §1, §2

[22] = test system: U87MG human glioblastoma; assay: MTT cytotoxicity assay, U87MG; format: cell-based; details: Homo sapiens, U-87 MG, 72 hours, read-out: TCS50
Excerpt: as §1, §2

[23] = test system: B16F mouse melanoma, metastatic; assay: MTT cytotoxicity assay, B16F; format: cell-based; details: Mus musculus, 72 hours, read-out: TCS50
Excerpt: as §1, §2

[24] = test system: K562-CdA human promyelocytic leukemia, cladrubin resistant; assay: MTT cytotoxicity assay, K562-CdA; format: cell-based; details: Homo sapiens, 72 hours, read-out: TCS50
Excerpt: as §1, §2

[25] = test system: human SK-N-AS neuroblastoma; assay: In vivo activity in xenotransplanted human neuroblastoma; parameters: species or system CD-1/Ctrl-1 nu/nu nude female mice; details: cisplatin 4 mg/kg subcutaneously 1×D1; SK-N-AS in nude mice (FIG. 2)
Protocol: Human neuroblastoma SK-N-AS cell line was obtained from ATTC. The line was cultured in Dulbeco's modified essential medium with 4.5 g dextrose/l, 10% of foetal calf serum, 2 mM glutamine, 100 U/ml penicillin and […] streptomycin. For transplantation purposes, only the cells in log phase were used.
CD-1/Ctrl-1 nu/nu nude female mice, 8 weeks old, 18–22 g weight were used in this study (IffaCredo, France). Animals were inoculated with 5.10^6 tumour cells subcutaneously into right inquinal region. Following transplantation, tumor growth was measured in both the control/vehicle and the treated groups using calipers. Tumor volume (TV) was calculated as follows: TV=(a^2×b)/2, where a is width and b is length The statistical significance was evaluated using a […].
Cisplatin (Platidiam 10 inj, sicc., Lachema, Czech Republic) was used as a control drug in this experiment. It was diluted in apyrogenic water and applied to animals in a final volume of 0.18 ml subcutaneously at day 1.
I.3 was synthesised as described above. It was suspended at 10 mg/ml in 5% dextrose and pH was adjusted to 8.0 with sodium hydroxide. vehicle: 5% dextrose with pH adjusted to 8.0 with sodium hydroxide. […]

[26] = test system: H3 histone (Lys9); assay: Histone acetylation, Western blot in CEM cells; format: cell-based, human
Protocol: CEM cells were cultured in Dulbeco's modified essential medium with 4.5 g dextrose/l, 10% of foetal calf serum, 2 mM glutamine, 100 U/ml penicillin and 100 μg/ml streptomycin with/without the indicated concentrations of HDAC inhibitor TSA or I.3. At selected time points, cells were harvested, washed in ice cold Hank's balanced salt solution and solubilized on ice using SDS-PAGE sample buffer containing protease and phosphatase inhibitors (10 μg/ml of leupeptin, 10 μg/ml of aprotinin, 10 μg/ml of soybean trypsin inhibitor, 100 μmol of benzamide, 1 mM of sodium vanadate, 1 mM of NaF, 1 mM of phenylphosphate) and boiled immediately.
Total cellular proteins (100 μg/well) were separated on SDS-PAGE electrophoresis, blotted on polyvinyldifluoride membranes and acetylated histone was detected using a anti-acetyl(Lys9)-histone H3 rabbit polyclonal antibody (Cell Signalling Technology, Beverly, Mass.; Cat# 9671L) and visualized by chemilumniuscence (ECL-Western Blotting System, Amersham). Details of the Western blot technique are described in Ausubel, F. M., Brent, R, Kingston, R. E., Moore, D. D., Seidman, J. G., Smith, J. A., Struhl, K. (Eds): Short Protocols in Molecular. Biology, 2nd edition, John Wiley & Sons, New York, Chichester, Brisbane, Toronto, Singapore, 1992, page 10–33–10–35.

Question: How did the IC50 [1] turn out when C=C(C)[C@@H]1CC[C@]2(C(=O)O)CC[C@]3(C)[C@H](CC[C@@H]4[C@@]5(C)CC[C@H](O)C(C)(C)[C@@H]5CC[C@]43C)[C@@H]12 [Betulinic acid, betulinic acid, reference compound] was run?
Answer: Its IC50 is 2.7 µM.

Question: What about the IC50 [2] of the same compound?
Answer: The IC50 was 101 µM.

Question: What about the IC50 [3] of the same compound?
Answer: The IC50 was 250 µM.

Question: What about the IC50 [4] of the same compound?
Answer: The IC50 was 250 µM.

Question: What about the IC50 [5] of the same compound?
Answer: The IC50 was 3.6 µM.

Question: What about the IC50 [6] of the same compound?
Answer: The IC50 was 250 µM.

Question: And the IC50 [7]?
Answer: The IC50 was 250 µM.

Question: What about the IC50 [8] of the same compound?
Answer: The IC50 was 250 µM.

Question: What about the IC50 [9] of the same compound?
Answer: Its IC50 is 20 µM.

Question: What about the IC50 [10] of the same compound?
Answer: Its IC50 is 24 µM.

Question: And the IC50 [11]?
Answer: Its IC50 is 250 µM.

Question: And the IC50 ([12]; Homo sapiens, CEM, MTT assay, 72 hours, read-out: TCS50)?
Answer: Its IC50 is 250 µM.

Question: And the IC50 [13]?
Answer: The IC50 was 19 µM.

Question: What about the IC50 [14] of the same compound?
Answer: The IC50 was 250 µM.

Question: What about the IC50 [15] of the same compound?
Answer: Its IC50 is 250 µM.

Question: What about the IC50 [16] of the same compound?
Answer: The IC50 was 250 µM.

Question: What about the IC50 [17] of the same compound?
Answer: Its IC50 is 69 µM.

Question: What about the IC50 [18] of the same compound?
Answer: Its IC50 is 250 µM.

Question: And the IC50 [19]?
Answer: The IC50 was 250 µM.

Question: And the IC50 [20]?
Answer: Its IC50 is 250 µM.

Question: And the IC50 [21]?
Answer: The IC50 was 36 µM.

Question: And the IC50 [22]?
Answer: The IC50 was 250 µM.

Question: And the IC50 [23]?
Answer: Its IC50 is 4.6 µM.

Question: And the IC50 [24]?
Answer: The IC50 was 250 µM.

Question: N.N.[Cl][Pt][Cl] [cisplatin, Cisplatin, reference compound] was tested. Which “tumor growth (tumor volume)” value [25] did it give?
Answer: The value was “no significant activity”.

Question: For CC(/C=C/C(=O)NO)=C\[C@@H](C)C(=O)c1ccc(N(C)C)cc1 [TSA, trichostatin A, reference compound], which IC50 ([12]; CEM cells, as stated in the histone acetylation study, read-out: IC50) is on record?
Answer: The IC50 was 0.24 µM.

Question: And the “increase of histone acetylation” value ([26]; 0.24 μM (IC50))?
Answer: The value was “no significant ability to increase histone acetylation”.

Question: And the “acetylation of H3 histone in Lys9 position” value ([26]; Western blot (FIG. 5))?
Answer: Its value is “rapidly acetylated”.
